This is an account of results in ChEMBL document CHEMBL1201862, “PubChem BioAssay data set” (2004).

The source made the active and inactive calls.

The target in series [1] is T1, Protein skinhead-1 (Caenorhabditis elegans, UniProt P34707).
T1 sequence (P34707 whole entry): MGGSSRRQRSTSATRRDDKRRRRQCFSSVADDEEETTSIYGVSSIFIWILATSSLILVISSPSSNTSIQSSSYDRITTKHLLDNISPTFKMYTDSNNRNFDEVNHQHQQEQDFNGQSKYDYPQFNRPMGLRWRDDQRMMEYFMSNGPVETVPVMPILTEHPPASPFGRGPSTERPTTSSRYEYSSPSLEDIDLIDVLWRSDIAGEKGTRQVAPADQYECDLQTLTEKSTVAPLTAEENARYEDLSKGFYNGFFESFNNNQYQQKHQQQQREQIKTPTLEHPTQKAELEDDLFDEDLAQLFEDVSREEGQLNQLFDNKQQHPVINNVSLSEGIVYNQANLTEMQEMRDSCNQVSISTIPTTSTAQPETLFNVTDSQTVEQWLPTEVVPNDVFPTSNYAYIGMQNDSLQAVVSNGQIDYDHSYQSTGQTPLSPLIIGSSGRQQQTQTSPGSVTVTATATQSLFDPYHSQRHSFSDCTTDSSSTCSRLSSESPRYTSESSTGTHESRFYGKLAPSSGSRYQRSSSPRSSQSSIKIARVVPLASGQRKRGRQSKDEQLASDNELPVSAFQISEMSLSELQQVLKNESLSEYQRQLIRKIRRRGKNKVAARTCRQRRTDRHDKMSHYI
Format: functional.

The target in series [2] is Cytochrome P450 2D6 (Homo sapiens, UniProt P10635).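 Note: CYP2D6 member of a cytochrome P450 panel assay.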
Series [3] concerns the target T2, Cytochrome P450 1A2 (Homo sapiens, UniProt P05177).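 Note: PubChem cytochrome P450 panel assay, CYP1A2 panel member.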
T2 sequence (P05177 whole entry): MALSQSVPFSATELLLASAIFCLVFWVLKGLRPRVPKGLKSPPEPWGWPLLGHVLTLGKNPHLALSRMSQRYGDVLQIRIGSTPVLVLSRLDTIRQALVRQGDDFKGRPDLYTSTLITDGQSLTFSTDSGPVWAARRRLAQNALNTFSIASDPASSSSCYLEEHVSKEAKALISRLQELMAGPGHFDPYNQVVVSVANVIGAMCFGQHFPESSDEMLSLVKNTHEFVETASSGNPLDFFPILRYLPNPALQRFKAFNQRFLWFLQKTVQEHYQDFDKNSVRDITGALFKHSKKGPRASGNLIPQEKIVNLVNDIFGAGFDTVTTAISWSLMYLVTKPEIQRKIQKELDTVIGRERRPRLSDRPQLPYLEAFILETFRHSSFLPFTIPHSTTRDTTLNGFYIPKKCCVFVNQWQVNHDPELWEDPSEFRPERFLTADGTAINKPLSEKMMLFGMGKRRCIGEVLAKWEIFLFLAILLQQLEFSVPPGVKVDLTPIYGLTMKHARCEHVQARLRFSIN

The nature of series [4]: HEp-2 cell cytotoxicity, dose response, cytotoxicity control for RSV inhibitor project, HTS (AID 2410). Type of series: functional. To be noted: human respiratory syncytial virus.
In series [5] the target is T3, Polyadenylate-binding protein 1 (Homo sapiens, UniProt P11940). As to the kind of experiment: PABP1 MLLE–PAM2 binding inhibitor potency, dose response, biochemical, fluorescence polarization, FITC-PAM2 peptide (AID 602259). To be noted: read-out: IC50_Mean. Format: functional. A general note: Fluorescence polarisation rises when a labelled molecule tumbles more slowly, as on binding a larger partner.

Series [6] has as its target T3, Polyadenylate-binding protein 1. As to the kind of experiment: PABP1 MLLE–PAM2 interaction inhibitors, dose response, miRNA deadenylation inhibitor project, biochemical, fluorescence polarization, Cy5-PAM2 peptide, secondary (AID 602260). Type of series: functional. To be noted: read-out: IC50_Mean.
For series [7], the target named is Cytochrome P450 2C19 (Homo sapiens, UniProt P33261). In words: Cytochrome panel assay with activity outcomes. Panel member name: p450-cyp2c19 Compounds with AC50 equal or less than 10 uM are considered active. Type of series: functional.
Series [8] deals with T4, Zinc finger protein mex-5 (Caenorhabditis elegans, UniProt Q9XUB2).
T4 sequence (Q9XUB2 whole entry): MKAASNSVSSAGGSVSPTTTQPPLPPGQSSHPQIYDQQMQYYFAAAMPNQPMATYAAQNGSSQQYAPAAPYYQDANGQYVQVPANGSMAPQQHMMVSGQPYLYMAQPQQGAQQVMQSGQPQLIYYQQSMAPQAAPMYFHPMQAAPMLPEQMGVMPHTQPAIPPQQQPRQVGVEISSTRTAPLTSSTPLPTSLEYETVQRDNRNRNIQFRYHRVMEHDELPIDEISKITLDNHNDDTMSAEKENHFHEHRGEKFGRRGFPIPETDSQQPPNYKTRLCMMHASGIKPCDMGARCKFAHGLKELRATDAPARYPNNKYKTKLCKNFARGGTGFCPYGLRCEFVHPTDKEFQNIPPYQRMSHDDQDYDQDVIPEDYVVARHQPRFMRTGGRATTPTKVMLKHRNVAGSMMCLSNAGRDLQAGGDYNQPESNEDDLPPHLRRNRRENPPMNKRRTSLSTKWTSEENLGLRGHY
In words: MEX-5/TCR-2 RNA interaction inhibitors, dose response, biochemical, C. elegans, fluorescence polarization (AID 1960).

Series [9] has as its target T5, RNA-binding protein pos-1 (Caenorhabditis elegans, UniProt G5EF15).
T5 sequence (G5EF15 whole entry): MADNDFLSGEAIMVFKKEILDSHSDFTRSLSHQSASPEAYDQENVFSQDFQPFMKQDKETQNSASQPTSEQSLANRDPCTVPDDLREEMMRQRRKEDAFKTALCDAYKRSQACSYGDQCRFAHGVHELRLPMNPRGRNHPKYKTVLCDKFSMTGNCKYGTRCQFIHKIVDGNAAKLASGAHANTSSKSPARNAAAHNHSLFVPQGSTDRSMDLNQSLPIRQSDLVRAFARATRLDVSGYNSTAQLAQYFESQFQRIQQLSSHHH
As to the kind of experiment: inhibitors of POS-1/mex-3 RNA binding, dose response, biochemical, fluorescence polarization (AID 1964).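 Note: purified POS-1 fused to maltose binding protein made in E. coli; potency of compounds blocking POS-1 binding to fluorescent RNA.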

A short description of series [10]: microbe, parasite or virus in culture. Type of series: functional. To be noted: Mycobacterium tuberculosis.
A short description of series [11]: Luminescence Cell-Based Dose Retest to Confirm Inhibitors of Cancer Stem Cells. [Related pubchem assays (depositor defined):AID2717, AID2721]. Format: functional. To be noted: Homo sapiens.
Series [12] relates to INS1. As to the kind of experiment: beta cell apoptosis inhibitors, cytokine rescue, dose response, luminescence, retest (AID 449756).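 Note: cell death triggered by IL-1 beta plus TNF-alpha plus IFN-gamma mixture; protective hits raise ATP signal compared with cytokine alone wells.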 Format: functional, cell-based. To be noted: Rattus norvegicus.
Series [13] deals with H4. In words: Luminescence Cell-Based Dose Response HTS to Identify Activators of 5'UTR Stem-Loop Driven Prion Protein mRNA Translation in H4 Neuroglioblastoma Cells. [Related pubchem assays: 1829 (Project Summary), 1814 (Primary HTS)]. Format: functional. To be noted: Homo sapiens.
Series [14] in a line: Luminescence Cell-Based Dose Response HTS to Identify Activators of Luciferase Translation or Activity in H4 […] Cells. [Related pubchem assays: 1829 (Project Summary), 1814 (Primary HTS)]. Format: functional.
Series [15] has as its target Cytochrome P450 2C9 (Homo sapiens, UniProt P11712).

The AC50 is the midpoint of the concentration-response curve, whichever way the signal moves. In general, EC50 refers to the concentration at which the effect is half-maximal.

Cytochrome P450 2C19, sequence (P33261 whole entry): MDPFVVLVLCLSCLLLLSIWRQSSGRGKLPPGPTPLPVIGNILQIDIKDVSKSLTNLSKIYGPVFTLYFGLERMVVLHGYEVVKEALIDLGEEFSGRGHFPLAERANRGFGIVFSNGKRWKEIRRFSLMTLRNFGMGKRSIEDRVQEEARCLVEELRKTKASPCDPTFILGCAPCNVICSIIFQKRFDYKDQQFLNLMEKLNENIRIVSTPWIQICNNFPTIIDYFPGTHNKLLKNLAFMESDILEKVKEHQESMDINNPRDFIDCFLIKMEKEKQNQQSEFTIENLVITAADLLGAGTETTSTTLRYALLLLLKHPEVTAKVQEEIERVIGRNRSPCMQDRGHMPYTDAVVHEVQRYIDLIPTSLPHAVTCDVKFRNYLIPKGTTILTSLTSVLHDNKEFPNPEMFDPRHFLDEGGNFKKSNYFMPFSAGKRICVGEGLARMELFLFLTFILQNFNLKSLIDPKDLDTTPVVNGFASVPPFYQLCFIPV
T3 sequence (P11940 whole entry): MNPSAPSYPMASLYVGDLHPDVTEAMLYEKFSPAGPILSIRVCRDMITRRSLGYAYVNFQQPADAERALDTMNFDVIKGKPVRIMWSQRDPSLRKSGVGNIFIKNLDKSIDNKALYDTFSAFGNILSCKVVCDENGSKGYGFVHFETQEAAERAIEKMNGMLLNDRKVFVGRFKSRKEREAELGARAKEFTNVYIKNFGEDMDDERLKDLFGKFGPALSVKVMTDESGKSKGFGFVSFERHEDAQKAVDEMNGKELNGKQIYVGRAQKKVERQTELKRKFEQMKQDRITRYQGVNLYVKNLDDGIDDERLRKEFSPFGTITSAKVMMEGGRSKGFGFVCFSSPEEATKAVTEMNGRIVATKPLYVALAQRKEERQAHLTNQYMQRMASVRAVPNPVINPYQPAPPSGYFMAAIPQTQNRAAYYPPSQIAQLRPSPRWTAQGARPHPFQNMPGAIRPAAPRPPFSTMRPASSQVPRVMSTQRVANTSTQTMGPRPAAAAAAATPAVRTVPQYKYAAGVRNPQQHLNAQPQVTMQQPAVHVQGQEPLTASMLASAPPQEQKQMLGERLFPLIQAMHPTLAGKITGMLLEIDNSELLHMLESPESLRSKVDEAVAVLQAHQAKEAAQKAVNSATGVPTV
Cytochrome P450 2D6, sequence (P10635 whole entry): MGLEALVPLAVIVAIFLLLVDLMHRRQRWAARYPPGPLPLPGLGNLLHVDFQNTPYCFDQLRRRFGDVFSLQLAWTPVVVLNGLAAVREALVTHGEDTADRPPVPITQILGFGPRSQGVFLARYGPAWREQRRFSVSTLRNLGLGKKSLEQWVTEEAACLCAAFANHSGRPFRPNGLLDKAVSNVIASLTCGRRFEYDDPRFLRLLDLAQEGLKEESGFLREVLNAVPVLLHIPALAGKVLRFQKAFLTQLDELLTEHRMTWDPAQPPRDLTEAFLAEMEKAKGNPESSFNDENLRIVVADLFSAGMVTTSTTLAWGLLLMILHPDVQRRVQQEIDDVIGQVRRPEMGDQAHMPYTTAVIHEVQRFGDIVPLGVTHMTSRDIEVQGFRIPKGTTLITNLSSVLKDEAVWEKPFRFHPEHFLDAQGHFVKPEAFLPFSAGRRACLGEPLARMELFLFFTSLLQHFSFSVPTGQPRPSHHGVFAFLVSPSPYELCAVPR
Cytochrome P450 2C9, sequence (P11712 whole entry): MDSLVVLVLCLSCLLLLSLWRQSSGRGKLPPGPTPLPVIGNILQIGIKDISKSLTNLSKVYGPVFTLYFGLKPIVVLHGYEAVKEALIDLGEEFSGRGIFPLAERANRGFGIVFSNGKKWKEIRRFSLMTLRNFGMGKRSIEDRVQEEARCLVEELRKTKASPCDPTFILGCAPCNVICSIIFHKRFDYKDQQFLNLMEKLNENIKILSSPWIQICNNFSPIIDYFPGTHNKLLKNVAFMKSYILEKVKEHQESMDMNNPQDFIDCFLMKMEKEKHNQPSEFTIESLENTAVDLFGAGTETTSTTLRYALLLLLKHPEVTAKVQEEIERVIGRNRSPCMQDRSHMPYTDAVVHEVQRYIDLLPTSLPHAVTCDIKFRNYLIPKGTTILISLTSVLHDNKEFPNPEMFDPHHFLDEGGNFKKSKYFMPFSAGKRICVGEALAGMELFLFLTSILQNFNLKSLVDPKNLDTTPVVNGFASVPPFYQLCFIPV

For the molecule `Cc1ccc(C2=NN(S(C)(=O)=O)C(c3ccc4c(c3)OCO4)C2)cc1` (stereo not drawn), the IC50 in [1] was > 100 µM (inactive).
The same measure, in the same setting: to `CN(C)c1ccc(/C=C(\C#N)C(=O)Nc2nc3c(s2)CCN(Cc2ccccc2)C3)cc1` belongs > 100 µM (inactive).
Consider `O[C@@H](c1cc(C(F)(F)F)nc2c(Cl)cc(Cl)cc12)[C@@H]1CCCCN1`, for which, in series [2], the half-maximal activity concentration (AC50) is 3.16 µM (inconclusive).
Take `Cc1ccc(S(=O)(=O)CCC(=O)Nc2nc3c(s2)CCCC3)cc1`: the AC50 in series [3] was 15.8 µM (inconclusive); in series [2] it was 28.2 µM (inconclusive). Also, the CC50 in series [4] is 32.3 µM (active).
`CC[C@@H]1CN2CCc3cc(OC)c(OC)cc3[C@H]2C[C@@H]1C[C@@H]1NCCc2cc(O)c(OC)cc21`: the AC50 in series [2] was 10 µM (inconclusive).
For `Cc1cc2cc(CNC(=O)CCC(=O)O)ccc2n1C`, in [1], the IC50 was > 100 µM (inactive).
Consider `COc1ccc(NC(S)=Nc2cccc(Cl)c2)cc1OC`, for which the IC50 in series [5] and in series [6] was > 66 µM (inactive) in each case.
For the molecule `O=C(O)c1ccc(Cn2cnc3cccnc32)cc1`, the IC50 in series [5] was 55.8 µM (inactive); in [6] it was > 66 µM (inactive).
In the case of `COC(=O)c1cc(NS(=O)(=O)c2ccc(N3CCCCC3)c([N+](=O)[O-])c2)cc(C(=O)OC)c1`, the AC50 in series [3] was 15.8 µM (inconclusive); in series [7] (read-out: AC50), 2.51 µM (inconclusive); in series [2], 10 µM (inconclusive).
Take `COc1cccc(C(=O)NCC(=O)NNc2ncnc(N)c2[N+](=O)[O-])c1`: the EC50 was < 0.06 µM (inconclusive) in series [8] and > 300 µM (inconclusive) in [9].
Consider `CCCNC(=O)COC(=O)C1CCN(S(=O)(=O)c2ccc3c(c2)OCCO3)CC1`, for which, in [1], the IC50 was > 100 µM (inactive).
As to `Cc1ccc2c(c1)C(c1ccc(N3CCOCC3)cc1)=NNC(c1cccs1)=N2`, the CC50 in [10] is 38.6 µM (active).
Regarding `Cc1oncc1-c1csc(-c2ccccc2Cl)n1`, in series [1], the IC50 is > 100 µM (inactive).
Turning to `CCc1ccc(OCCCC(=O)Nc2ccc(N3CCCCC3)cc2)cc1`, the AC50 in series [7] (read-out: AC50) was 10 µM (inconclusive); in [2], 1.26 µM (inconclusive).
Regarding `CCOc1ccccc1N=C(S)NNS(=O)(=O)c1c(C)cc(C)cc1C`, the IC50 in series [5] and in series [6] was > 66 µM (inactive) throughout.
As to `O=C(CSc1nc2cc(Br)c[nH]c-2n1)Nc1ccc2c(c1)OCO2`, the CC50 in series [10] is > 40 µM (active).
For the molecule `Cc1ccc(-c2c(C)nn3c(N4CCOCC4)cc(C)nc23)cc1`, in [1], the IC50 is > 100 µM (inactive).
Regarding `CS(=O)(=O)N1CCC2(CCN(c3ccncc3)CC2)CC1`, the concentration at half-maximal activity (AC50) in [2] is 25.1 µM (inconclusive).
Turning to `Cc1ccc(NC(=O)/C(C#N)=C/c2ccc(C)s2)c(C)c1`, the EC50 in series [8] is 9.25 µM (active); in [9] it was 64.2 µM (inconclusive).
As for `CC(C)(C)C1CCc2sc(-c3nnc(CCl)o3)cc2C1` (stereo not drawn), the CC50 in series [10] is 21 µM (active).
In the case of `CN(C)c1ccc(-c2cc(O)c3ncccc3c2)cc1`, the figures for the AC50 in series [11] and in series [12] were 7.11 µM (active) and 5.16 µM (active), respectively. The CC50 in [10] was 23.2 µM (active).
`c1csc(CSc2nc3ccccc3s2)c1`: the IC50 in series [1] is 27.5 µM (active). Besides, the results for the EC50 in series [13] and in series [14] were 36.9 µM (active) and 1.12 µM (active), respectively.
`O=C(NC(=S)Nc1ccc2oc(=O)ccc2c1)c1ccco1`: the IC50 in [5] and in series [6] was > 66 µM (inactive) in each case.
With `Nc1c(NCCC2=CCCCC2)c(=O)[nH]c(=O)n1Cc1ccccc1`, the EC50 in [8] is 13.9 µM (active); in [9] it was 23.2 µM (active).
For the molecule `COCCCN=C(S)N(CCO)Cc1cc2cc3c(cc2nc1O)OCCO3`, the IC50 in series [5] and in [6] was > 66 µM (inactive) in each case.
Consider `NS(=O)(=O)c1ccc(NC(S)=NNC(=O)CCC(=O)Nc2ccccc2Cl)cc1`, for which the results for the EC50 in [8] and in series [9] were 12.2 µM (active) and 13 µM (inconclusive), respectively.
For the molecule `CCN(CCO)C[C@H]1CCC[C@H]2CCCC[C@@H]21`, the AC50 in [2] was 6.31 µM (inconclusive).
As to `O=C(CCN1C(=O)/C(=C\C=C\c2ccccc2)SC1=S)Nc1ccc(C(=O)O)cc1`, the half-maximal effective concentration (EC50) in series [8] is 38.7 µM (active); in series [9], > 300 µM (not active).
For `Cc1nn(-c2ccccc2)c(N)c1C(c1ccc(C(C)C)cc1)c1c(C)nn(-c2ccccc2)c1N`, in series [10], the CC50 was > 40 µM (active).
In the case of `O=C(NNC(=O)c1cnccn1)c1ccc(Cl)cc1`, the results for the EC50 in series [8] and in series [9] were 12.4 µM (active) and 95.9 µM (active), respectively.
For the molecule `c1ccc(Cn2nnc3c(NCCN4CCOCC4)ncnc32)cc1`, the IC50 in series [1] was > 100 µM (inactive).
On the same count and under the same terms, to `O=C(NCc1ccco1)c1sc2cc(F)ccc2c1Cl` belongs > 100 µM (inactive); to `CC(C)Cn1c(N)c(C(=O)CSc2nnnn2C)c(=O)n(C)c1=O`, > 100 µM (inactive).
As for `O=C(NC(=S)Nc1ccccc1)c1cncc(C#Cc2ccccc2)c1`, the IC50 in series [5] and in series [6] was > 66 µM (inactive) throughout.
As to `CN(C)c1ncc2nc(-c3cccc(C#N)c3)c(=O)n(CCC#N)c2n1`, the AC50 in [2] is 39.8 µM (inconclusive); in series [15], “inconclusive”.
As to `Fc1ccc(Nc2ncncc2-c2ccccc2C(F)(F)F)cc1`, the AC50 in series [3] was 20 µM (inconclusive); in series [2], 39.8 µM (inconclusive).
Regarding `CCn1nnc2sc3c(c2c1=O)CCC(C)C3` (stereo not drawn), in series [1], the IC50 is > 100 µM (inactive).
On the same count and under the same terms, in the case of `CCOc1cc(CNCCSc2nnnn2C)cc(Br)c1OCc1ccc(F)cc1` it was 6.7 µM (active).
Turning to `N=C(N)Nc1ccc(Cl)cc1`, the AC50 result in [7] is “inconclusive”; in series [2], 31.6 µM (inconclusive).
